Test [1] deals with T1, European robin Cryptochrome 4a (ErCry4a) (Erithacus rubecula, UniProt A0A2I4SZI9).
T1 construct: anion exchange purified; monomer with minor dimer
Description: native electrospray mass spectrometry; UV-vis absorption. As to conditions: co-purified FAD, noncovalent; 20 uM protein, 150 mM ammonium acetate, pH 8. The test is classed as binding.

Test [2] deals with T2, European robin Cryptochrome 4a (ErCry4a) (Erithacus rubecula, UniProt A0A2I4SZI9, R356E).
T2 construct: anion exchange purified; monomer with minor dimer
The description is as above. As to conditions: co-purified FAD, noncovalent; 20 uM protein, 150 mM ammonium acetate, pH 8; no bound FAD detected (non-binder). In kind it is binding.

Molecules are shown by their SMILES.

T1 sequence (A0A2I4SZI9 entry or part of it): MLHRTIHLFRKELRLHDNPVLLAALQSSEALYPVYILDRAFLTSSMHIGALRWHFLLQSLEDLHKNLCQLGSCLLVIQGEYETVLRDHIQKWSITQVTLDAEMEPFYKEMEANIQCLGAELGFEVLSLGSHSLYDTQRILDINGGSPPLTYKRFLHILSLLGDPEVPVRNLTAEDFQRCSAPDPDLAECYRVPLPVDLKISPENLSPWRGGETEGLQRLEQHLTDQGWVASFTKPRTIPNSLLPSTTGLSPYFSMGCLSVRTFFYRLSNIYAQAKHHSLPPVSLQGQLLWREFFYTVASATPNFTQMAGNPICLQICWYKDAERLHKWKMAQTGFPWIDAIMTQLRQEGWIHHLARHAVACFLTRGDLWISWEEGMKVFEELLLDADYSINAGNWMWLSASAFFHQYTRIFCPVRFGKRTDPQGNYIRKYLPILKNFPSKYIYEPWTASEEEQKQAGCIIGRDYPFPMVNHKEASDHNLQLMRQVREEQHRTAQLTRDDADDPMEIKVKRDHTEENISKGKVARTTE
T2 sequence (A0A2I4SZI9 entry or part of it R356E): as the sequence (A0A2I4SZI9 entry or part of it) above, with R356E counted along it

In the case of `Cc1cc2nc3c(=O)[nH]c(=O)nc-3n(C[C@H](O)[C@H](O)[C@H](O)COP(=O)(O)OP(=O)(O)OC[C@H]3O[C@@H](n4cnc5c(N)ncnc54)[C@H](O)[C@@H]3O)c2cc1C` [flavin adenine dinucleotide], the “% of protein with FAD bound” value in test [1] stood at 94%. Further, the “native electrospray mass spectrometry; UV-vis absorption” value in test [2] is listed as “The R356E mutant is detected exclusively without FAD”.

Source of the values: PMC13051451, “A Charge-Reversal Point Mutation Completely Depletes Flavin Chromophore from European Robin Cryptochrome 4a Protein” (The Journal of Physical Chemistry Letters, 2026).
